We go through two molecules from patent US20250346576A1, “KCNT1 INHIBITORS COMPRISING A PYRAZOLE CORE AND METHODS OF USE” (PRAXIS PRECISION MEDICINES, INC., priority 2022, published 2025).

Broadly, the solubility (kinetic) is the concentration staying in solution when a stock, usually in DMSO, is diluted into the medium.

SMILES strings stand for the structures.

Data set [1] can be described thus: Liver microsome metabolic stability assay (NADPH). Type of data set: in vitro ADME. The settings on record: human liver microsomes, 1.0 μM compound, 0.5 mg/ml protein, 37° C., read-out: CLint (HClint). The method, then:
Liver Microsome Metabolic Stability Assay (NADPH): • 1) Test compounds were incubated at 37° C. with liver microsomes (pooled from multiple donors) at 1.0 μM in the presence of NADPH (˜1.0 mM) at 0.5 mg/ml microsomal protein. • 2) Positive controls include testosterone (3A4 substrate), propafenone (2D6) and diclofenac (2C9). They are also incubated with microsomes in the presence of NADPH. • 3) Time samples (0, 5, 15, 30, 45 and 60 minutes) are removed and immediately mixed with cold acetonitrile containing internal standard (IS). Test compound incubated with microsomes without NADPH for 60 min are also included. • 4) Duplicate point for each test condition (n=2). • 5) Samples are analyzed by LC/MS/MS; disappearance of test compound is assessed base on peak area ratios of analyte/IS (no standard curve). • 6) An excel data summary, calculated intrinsic clearance and T1/2 values are provided. • 7) The following equation is used to calculate the microsome clearance: […]
The mg microsomal protein/g liver weight is 45 for 5 species. The liver weight values will use 40 g/kg, 30 g/kg, 32 g/kg, 20 g/kg and 88 g/kg for rat, monkey, dog, human and mouse, respectively. The liver clearance will be calculated using CLint(mic) with the following equation: […]
For orientation: Liver microsomes are a subcellular fraction often used to study metabolism.

Data set [2] can be described thus: Kinetic solubility assay (shake flask, HPLC-UV). It counts as physicochemical. As to conditions: aqueous buffer, kinetic from dmso stock, 50 mM pH 7.4 phosphate buffer, room temperature. The method, then: Kinetic Solubility Assay: The Kinetic solubility assay employed the shake flask method followed by HPLC-UV analysis. The following step-wise procedure is used: • 1) Weigh and dissolve the samples in 100% DMSO as the stock solution of 10 mM. About 10 μL (compound/Media) of stock solution is needed in this assay. • 2) Add the test compounds and controls (10 mM in DMSO, 10 μL/vial) into the 50 mM pH 7.4 phosphate buffer (490 μL/well) placed in a Mini-Uniprep filter. • 3) Vortex the samples of kinetic solubility for 2 minutes. • 4) Incubate and shake the solubility solutions on an orbital shaker with 800 rpm at room temperature for 24 hours. • 5) Centrifuge at 4000 rpm, 20° C. for 10 minutes. • 6) Transfer 400 μL (with or without dilution) of each solubility supernatant into 96-deep well for analysis after the samples will be directly filtered by the syringeless filter device. • 7) Determine the test compound concentration of the filtrate using HPLC-UV. • 8) Inject at least 5 UV standard solutions into HPLC from low to high concentration subsequently and then test the Kinetic solubility supernatant in duplicate. • 9) Use the QC samples to monitor Kinetic solubility determination process.

`Cn1nc(C(F)(F)F)cc1C(=O)NC(C)(C)c1cc(-c2ccnc(C(F)(F)F)c2)nn1C` [Compound 1063, 1-methyl-N-(2-(1-methyl-3-(2-(trifluoromethyl)pyridin-4-yl)-1H-pyrazol-5-yl)propan-2-yl)-3-(trifluoromethyl)-1H-pyrazole-5-carboxamide]: in data set [1], the microsomal CLint at 1 μM is less than 9.6 µL/min/mg. The molecule further registered a solubility (kinetic) at 24 h in data set [2] of less than 1.6 µM.

For the molecule `Cn1nc(C(F)(F)F)cc1C(=O)NC1(c2cc(-c3ccnc(C(F)(F)F)c3)nn2C)CCC1` [Compound 1064, 1-methyl-N-(1-(1-methyl-3-(2-(trifluoromethyl)pyridin-4-yl)-1H-pyrazol-5-yl)cyclobutyl)-3-(trifluoromethyl)-1H-pyrazole-5-carboxamide], the microsomal CLint at 1 μM in data set [1] was less than 9.6 µL/min/mg. For the same molecule, the kinetic solubility at 24 h in data set [2] is less than 1.6 µM.
